What was measured:
Assay in all cases: relative viability (nuclei count vs DMSO), 5 days (fraction); higher = more cells survive
EMC-BAC-2 = tested on: EMC-BAC-2
How it was run: (§1)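 Values are medians from duplicate plates. Each reflects relative viability, defined as the nuclei count of treated wells over that of vehicle wells. Lung cancer cell lines in 1536-well plates were pin-tool dosed one day after seeding with one drug alone or with a fixed anchor-drug dose plus five library-drug doses (not always all listed) in √10 steps, then fixed, stained and imaged at 4× after 5 days.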

LU99A = tested on: LU99A
How it was run: as §1

SW 1573 = tested on: SW 1573
How it was run: as §1

HCC-827 = tested on: HCC-827
How it was run: as §1

PC-14 = tested on: PC-14
How it was run: as §1

LCLC-103H = tested on: LCLC-103H
How it was run: as §1

NCI-H2126 = tested on: NCI-H2126
How it was run: as §1

NCI-H2342 = tested on: NCI-H2342
How it was run: as §1

SK-LU-1 = tested on: SK-LU-1
How it was run: as §1

NCI-H1666 = tested on: NCI-H1666
How it was run: as §1

HCC-78 = tested on: HCC-78
How it was run: as §1

LXF-289 = conditions: first compound 0.01 µM
How it was run: as §1

O=c1cc(N2CCOCC2)oc2c(-c3cccc4c3sc3ccccc34)cccc12 + Cc1nc(Nc2ncc(C(=O)Nc3c(C)cccc3Cl)s2)cc(N2CCN(CCO)CC2)n1 [Dasatinib] (partner 0.075 µM)
relative viability (EMC-BAC-2; first compound 0.01 µM): 0.366 | relative viability (EMC-BAC-2; first compound 0.03162 µM): 0.32 | relative viability (EMC-BAC-2; first compound 0.1 µM): 0.342 | relative viability (EMC-BAC-2; first compound 0.3162 µM): 0.371 | relative viability (EMC-BAC-2; first compound 1 µM): 0.344 | relative viability (LU99A; first compound 0.01 µM): 0.552 | relative viability (LU99A; first compound 0.03162 µM): 0.596 | relative viability (LU99A; first compound 0.1 µM): 0.741 | relative viability (LU99A; first compound 0.3162 µM): 0.535 | relative viability (LU99A; first compound 1 µM): 0.421 | relative viability (SW 1573; first compound 0.01 µM): 0.463 | relative viability (SW 1573; first compound 0.03162 µM): 0.482 | relative viability (SW 1573; first compound 0.1 µM): 0.535 | relative viability (SW 1573; first compound 0.3162 µM): 0.546 | relative viability (SW 1573; first compound 1 µM): 0.475 | relative viability (HCC-827; first compound 0.01 µM): 0.338 | relative viability (HCC-827; first compound 0.03162 µM): 0.293 | relative viability (HCC-827; first compound 0.1 µM): 0.323 | relative viability (HCC-827; first compound 0.3162 µM): 0.283 | relative viability (HCC-827; first compound 1 µM): 0.328 | relative viability (PC-14; first compound 0.01 µM): 0.237 | relative viability (PC-14; first compound 0.03162 µM): 0.267 | relative viability (PC-14; first compound 0.1 µM): 0.276 | relative viability (PC-14; first compound 0.3162 µM): 0.257 | relative viability (PC-14; first compound 1 µM): 0.237 | relative viability (LCLC-103H; first compound 0.01 µM): 0.491 | relative viability (LCLC-103H; first compound 0.03162 µM): 0.412 | relative viability (LCLC-103H; first compound 0.1 µM): 0.539 | relative viability (LCLC-103H; first compound 0.3162 µM): 0.449 | relative viability (LCLC-103H; first compound 1 µM): 0.401 | relative viability (NCI-H2126; first compound 0.01 µM): 0.66 | relative viability (NCI-H2126; first compound 0.03162 µM): 0.631 | relative viability (NCI-H2126; first compound 0.1 µM): 0.609 | relative viability (NCI-H2126; first compound 0.3162 µM): 0.611 | relative viability (NCI-H2126; first compound 1 µM): 0.533 | relative viability (NCI-H2342; first compound 0.01 µM): 0.352 | relative viability (NCI-H2342; first compound 0.03162 µM): 0.307 | relative viability (NCI-H2342; first compound 0.1 µM): 0.332 | relative viability (NCI-H2342; first compound 0.3162 µM): 0.322 | relative viability (NCI-H2342; first compound 1 µM): 0.325 | relative viability (SK-LU-1; first compound 0.01 µM): 0.173 | relative viability (SK-LU-1; first compound 0.03162 µM): 0.175 | relative viability (SK-LU-1; first compound 0.1 µM): 0.166 | relative viability (SK-LU-1; first compound 0.3162 µM): 0.195 | relative viability (SK-LU-1; first compound 1 µM): 0.181 | relative viability (NCI-H1666; first compound 0.01 µM): 0.775 | relative viability (NCI-H1666; first compound 0.03162 µM): 0.787 | relative viability (NCI-H1666; first compound 0.1 µM): 0.755 | relative viability (NCI-H1666; first compound 0.3162 µM): 0.809 | relative viability (NCI-H1666; first compound 1 µM): 0.754 | relative viability (HCC-78; first compound 0.01 µM): 0.353 | relative viability (HCC-78; first compound 0.03162 µM): 0.363 | relative viability (HCC-78; first compound 0.1 µM): 0.275 | relative viability (HCC-78; first compound 0.3162 µM): 0.292 | relative viability (HCC-78; first compound 1 µM): 0.32 | relative viability (LXF-289): 0.239
